In brackets after ≈: the same amount, converted by molar mass.
Legend:
P. falciparum = experiment: In-vitro evaluation of anti-malarial activity (schizont maturation inhibition); assay type: cell-based, Plasmodium falciparum
Method: Two strains of chloroquine sensitive strain and one strain of P. falciparum isolated from patients from Jagadalpur region of India and maintained in vitro. The cultures are maintained as per the standard culture procedures.
The parasites are growth in O +ve human RBCs with the addition of RPMI 1640 culture media with 10% Human serum as supplement. The cells are incubated at 37° C. at 5% CO2 atmosphere and the parasitemia is checked after 24 hrs and media changed. When parasitemia exceeded 10% parasitized cells the culture is subcultured with the addition of fresh RBC. The parasite growth is synchronized by the sorbitol lysis method and synchronized ring stage parasites are used for testing. The in-vitro testing is done in 100 μI complete media per well with the addition of 10 μI of erythrocytes with 2% of ring stages of parasites. All the tests are run in duplicates with in 96 well flat bottomed tissue culture plate and double dilutions are made for each of the test compound with individual control wells only with the RPMI 1640 and human serum supplement. The growth of the parasites in the presence of each of the test compound, chloroquine and control wells are monitored by the examination of the giemsa stained blood smears made after 24 hrs of incubation. The counting is done for the presence of mature schizsonts among 200 asexual parasites and the average schizont maturation inhibition is calculated by the formula (1−Nt/Nc)×100 where in Nt and Nc represent the number of schizont present in the test and control respectively. The IC 50 and IC 90 values are calculated by using the commercial statistical package Sigmastat.
As controls IC50 chloroquine and artether were also determined.

P. berghi = experiment: In-vivo anti-malarial activity; parameters: species or system Plasmodium berghi; conditions: result in words
[1] = schizont maturation inhibition, synchronized ring stage parasites in human RBCs, 24 hrs incubation

| IC50 (P. falciparum; Plasmodium falciparum, 24 h) | IC90 (P. falciparum; Plasmodium falciparum, 24 h) | IC50 (P. falciparum; [1]) | IC90 (P. falciparum; [1]) | SMILES | inhibitory activity against P. berghi in-vivo (P. berghi) | inhibitory activity against P. falciparum in-vitro (P. falciparum; in-vitro, result in words) |
| --- | --- | --- | --- | --- | --- | --- |
| 12.9 µg/mL (≈ 40.2 µM) | 23.7 µg/mL (≈ 74.1 µM) | – | – | CCN(CC)CCCC(C)Nc1ccnc2cc(Cl)ccc12 (stereo not drawn) [Chloroquine, reference compound] | – | – |
| – | – | 8.23 µg/mL (≈ 24.8 µM) | 24.29 µg/mL (≈ 73.1 µM) | CC1=CC(=O)CC2C1(C)CCC(CO)C2(C)CCC1=CCOC1=O (stereo not drawn) [Gomphostenin, 3-[2-(2-Hydroxymethyl-1,4a,5-trimethyl-7-oxo-1,2,3,4,4a,7 8,8a-octahydronaphthalen-1-yl)-ethyl]-5H-furan-2-one] | significant inhibitory activity | significant inhibitory activity |
